# Test results from patent publication US8871753B2, “Macrocyclic compounds and their use as kinase inhibitors” (Incyte Corporation, priority 2008, dated 2014).
# Structures can show the parent of a compound that is named as a salt. Where two headings read alike, the source gives them in different places.
# Key:
# Type in all cases: biochemical
# [1] = target: T1, human JAK3 (a.a. 781-1124) (Homo sapiens, UniProt P52333); test: In vitro JAK kinase assay (HTRF, phosphorylation of a biotinylated peptide), JAK3
# T1 construct: JAK3 (a.a. 781-1124); His tag (N); made in house; host or cells: insect cells (baculovirus)
# Method in brief: (§1)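 Kinase reactions ran at room temperature for 1 h with ATP matched per isoform (JAK1 90 μM, JAK2 30 μM, JAK3 3 μM). After an EDTA stop, the phosphorylated biotin-peptide was read by HTRF using Eu-Py20 and SA-APC after 40 min binding.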
# [2] = target: T2, human JAK2 (a.a. 828-1132) (Homo sapiens, UniProt O60674); test: In vitro JAK kinase assay (HTRF, phosphorylation of a biotinylated peptide), JAK2
# T2 construct: JAK2 (a.a. 828-1132); His tag (N); made in house; host or cells: insect cells (baculovirus)
# Method in brief: as §1
# [3] = target: T3, Recombinant Human Anaplastic Lymphoma Kinase (Homo sapiens, UniProt Q9UM73); test: ALK HTRF kinase assay
# T3 construct: purchased Invitrogen, Carlsbad, Calif
# Method in brief: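 Recombinant human ALK with biotinylated peptide substrate; phosphorylation detected by HTRF using Eu-labelled anti-phosphotyrosine antibody and streptavidin-allophycocyanin. IC50 from a sigmoidal fit with Hill slope.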
# TYK2 = TYK2 (Homo sapiens, UniProt P29597); test: TYK2 kinase inhibition (Table A1)
# [4] = target: T4, human JAK1 (a.a. 837-1142) (Homo sapiens, UniProt P23458); test: In vitro JAK kinase assay (HTRF, phosphorylation of a biotinylated peptide), JAK1; settings: read-out: JAK1 IC50
# T4 construct: human JAK1 (a.a. 837-1142); His tag (N); made in house; host or cells: insect cells (baculovirus)
# Method in brief: as §1
# [5] = method AA1 (3 μM ATP) or AA2 (1000 μM ATP), not stated per value
# [6] = method AA1 (30 μM ATP) or AA2 (1000 μM ATP), not stated per value
# [7] = method AA1 (90 μM ATP) or AA2 (1000 μM ATP), not stated per value
# [8] = compound at 500 nM or 1 mM, 90 μM ATP
# T1 sequence (P52333 781-1124): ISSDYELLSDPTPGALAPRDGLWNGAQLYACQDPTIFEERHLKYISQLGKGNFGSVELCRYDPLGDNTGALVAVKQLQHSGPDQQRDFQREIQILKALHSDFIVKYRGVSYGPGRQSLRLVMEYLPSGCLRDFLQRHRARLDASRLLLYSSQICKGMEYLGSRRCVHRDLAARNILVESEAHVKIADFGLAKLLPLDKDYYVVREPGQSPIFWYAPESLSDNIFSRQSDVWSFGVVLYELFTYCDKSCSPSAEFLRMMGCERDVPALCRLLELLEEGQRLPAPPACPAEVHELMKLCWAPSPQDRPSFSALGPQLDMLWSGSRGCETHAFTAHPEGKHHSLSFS
# T3 sequence (Q9UM73 19-1620): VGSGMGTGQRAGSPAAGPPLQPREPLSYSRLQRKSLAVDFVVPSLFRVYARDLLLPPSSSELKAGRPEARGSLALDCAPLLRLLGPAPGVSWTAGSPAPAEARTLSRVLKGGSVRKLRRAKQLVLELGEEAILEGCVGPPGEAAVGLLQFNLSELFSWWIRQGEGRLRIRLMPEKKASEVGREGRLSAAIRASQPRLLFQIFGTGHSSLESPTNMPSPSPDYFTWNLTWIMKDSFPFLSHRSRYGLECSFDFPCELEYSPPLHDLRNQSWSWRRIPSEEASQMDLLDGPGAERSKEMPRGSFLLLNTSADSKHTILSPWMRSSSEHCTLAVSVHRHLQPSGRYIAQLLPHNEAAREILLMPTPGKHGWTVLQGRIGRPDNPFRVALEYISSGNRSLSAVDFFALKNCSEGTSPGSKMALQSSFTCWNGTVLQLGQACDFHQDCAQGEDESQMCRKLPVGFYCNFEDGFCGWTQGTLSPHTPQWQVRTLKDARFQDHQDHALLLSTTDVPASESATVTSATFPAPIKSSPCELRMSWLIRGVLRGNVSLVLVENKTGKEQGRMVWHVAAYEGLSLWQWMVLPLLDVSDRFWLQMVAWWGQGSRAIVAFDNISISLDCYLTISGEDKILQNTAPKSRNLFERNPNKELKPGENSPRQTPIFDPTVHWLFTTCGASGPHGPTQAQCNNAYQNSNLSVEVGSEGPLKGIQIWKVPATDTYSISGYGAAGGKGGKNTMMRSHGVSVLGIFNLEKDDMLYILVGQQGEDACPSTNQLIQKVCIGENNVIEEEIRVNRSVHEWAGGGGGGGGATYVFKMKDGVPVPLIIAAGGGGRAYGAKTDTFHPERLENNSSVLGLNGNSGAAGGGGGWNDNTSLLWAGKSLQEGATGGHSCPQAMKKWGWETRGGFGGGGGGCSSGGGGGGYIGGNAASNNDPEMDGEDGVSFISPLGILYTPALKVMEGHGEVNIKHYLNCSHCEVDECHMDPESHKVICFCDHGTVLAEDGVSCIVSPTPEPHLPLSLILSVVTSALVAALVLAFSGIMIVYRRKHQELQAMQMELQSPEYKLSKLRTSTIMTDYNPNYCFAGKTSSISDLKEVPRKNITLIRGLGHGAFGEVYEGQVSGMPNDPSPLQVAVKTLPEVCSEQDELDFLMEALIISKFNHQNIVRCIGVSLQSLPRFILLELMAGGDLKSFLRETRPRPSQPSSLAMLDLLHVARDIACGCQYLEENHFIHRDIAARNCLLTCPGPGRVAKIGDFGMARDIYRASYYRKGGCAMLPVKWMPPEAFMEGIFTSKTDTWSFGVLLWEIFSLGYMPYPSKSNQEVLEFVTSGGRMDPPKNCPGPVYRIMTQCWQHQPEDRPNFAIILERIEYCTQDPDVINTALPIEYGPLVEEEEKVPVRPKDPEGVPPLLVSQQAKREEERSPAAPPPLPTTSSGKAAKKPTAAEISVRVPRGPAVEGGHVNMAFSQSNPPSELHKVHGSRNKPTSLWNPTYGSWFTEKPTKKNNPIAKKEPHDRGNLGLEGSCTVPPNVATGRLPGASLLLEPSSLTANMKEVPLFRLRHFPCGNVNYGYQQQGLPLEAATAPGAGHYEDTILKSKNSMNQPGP
# T4 sequence (P23458 849-1154): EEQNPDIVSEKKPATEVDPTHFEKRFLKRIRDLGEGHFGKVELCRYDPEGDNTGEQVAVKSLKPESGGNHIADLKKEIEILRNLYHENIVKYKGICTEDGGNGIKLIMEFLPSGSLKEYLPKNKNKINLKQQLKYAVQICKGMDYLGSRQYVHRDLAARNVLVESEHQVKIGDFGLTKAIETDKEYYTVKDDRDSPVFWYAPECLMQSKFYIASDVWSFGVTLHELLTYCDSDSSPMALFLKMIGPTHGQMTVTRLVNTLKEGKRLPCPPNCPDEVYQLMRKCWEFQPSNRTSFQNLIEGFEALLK
# Chain of TYK2 (P29597 whole entry): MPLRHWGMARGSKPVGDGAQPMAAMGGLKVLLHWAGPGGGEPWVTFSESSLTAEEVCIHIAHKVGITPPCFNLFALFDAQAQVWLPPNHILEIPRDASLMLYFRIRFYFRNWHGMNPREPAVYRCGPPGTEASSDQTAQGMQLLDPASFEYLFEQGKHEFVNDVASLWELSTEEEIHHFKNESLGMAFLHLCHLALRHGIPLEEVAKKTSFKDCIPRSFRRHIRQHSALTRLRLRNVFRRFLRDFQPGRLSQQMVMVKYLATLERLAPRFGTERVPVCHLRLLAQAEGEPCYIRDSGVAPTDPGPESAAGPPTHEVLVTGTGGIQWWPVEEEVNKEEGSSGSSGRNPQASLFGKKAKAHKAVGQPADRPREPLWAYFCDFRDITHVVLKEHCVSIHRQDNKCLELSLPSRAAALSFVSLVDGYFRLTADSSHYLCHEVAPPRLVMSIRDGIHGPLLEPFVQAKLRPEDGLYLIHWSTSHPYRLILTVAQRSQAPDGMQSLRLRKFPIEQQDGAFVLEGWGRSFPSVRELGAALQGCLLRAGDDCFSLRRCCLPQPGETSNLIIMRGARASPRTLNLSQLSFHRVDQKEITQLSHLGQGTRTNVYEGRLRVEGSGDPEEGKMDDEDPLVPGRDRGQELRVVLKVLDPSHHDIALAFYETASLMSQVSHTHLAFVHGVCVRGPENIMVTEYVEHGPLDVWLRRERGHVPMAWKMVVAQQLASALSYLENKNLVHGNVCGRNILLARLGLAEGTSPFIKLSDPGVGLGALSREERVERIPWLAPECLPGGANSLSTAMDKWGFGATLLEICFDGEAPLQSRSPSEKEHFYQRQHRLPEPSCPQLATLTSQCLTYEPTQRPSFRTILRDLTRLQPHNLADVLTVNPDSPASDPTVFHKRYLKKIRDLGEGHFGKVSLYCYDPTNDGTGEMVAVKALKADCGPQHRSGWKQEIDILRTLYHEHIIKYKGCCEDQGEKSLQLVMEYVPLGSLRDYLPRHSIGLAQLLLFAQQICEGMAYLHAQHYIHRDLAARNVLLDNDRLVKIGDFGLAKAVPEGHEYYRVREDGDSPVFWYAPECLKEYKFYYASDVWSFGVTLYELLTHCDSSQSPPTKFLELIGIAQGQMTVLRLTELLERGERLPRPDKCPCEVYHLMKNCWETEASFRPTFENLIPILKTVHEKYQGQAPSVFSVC
# T2 sequence (O60674 828-1132): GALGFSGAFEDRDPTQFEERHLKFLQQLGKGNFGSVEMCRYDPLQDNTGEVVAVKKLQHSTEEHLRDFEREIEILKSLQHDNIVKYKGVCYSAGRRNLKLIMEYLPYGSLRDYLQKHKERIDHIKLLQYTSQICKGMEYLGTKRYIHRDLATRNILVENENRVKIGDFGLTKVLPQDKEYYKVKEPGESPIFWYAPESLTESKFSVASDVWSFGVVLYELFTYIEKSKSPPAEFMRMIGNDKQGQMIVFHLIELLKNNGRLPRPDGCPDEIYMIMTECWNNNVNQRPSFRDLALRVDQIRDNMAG
Compound,"IC50 [1, 5] [nM]","IC50 [2, 6] [nM]",IC50 ([3]; 90 μM ATP) [nM],IC50 (TYK2) [nM],"IC50 [4, 7] [nM]","ALK % of inhibition at a concentration of 500 nM or 1 mM [3, 8] [%]",also measured
"Clc1cnc2nc1Nc1cccc(c1)/C=C\c1cccc(c1)N2 [Example A1, (14Z)-6-Chloro-2,4,8,22-tetraazatetracyclo[14.3.1.1(3,7).1(9,13)]docosa-1(20),3(22),4,6,9(21),10,12,14,16,18-decaene trifluoroacetate]",8.5,2.7,415,4.7,6,–,–
"Clc1cnc2nc1Nc1cccc(c1)CCc1cccc(c1)N2 [Example A2, 6-Chloro-2,4,8,22-tetraazatetracyclo[14.3.1.1(3,7).1(9,13)]docosa-1(20),3(22),4,6,9(21),10,12,16,18-nonaene trifluoroacetate]",26,9.3,657,35,12,–,–
"c1cc2cc(c1)Nc1ccnc(n1)Nc1cccc(c1)CC2 [Example A3, 2,4,8,22-Tetraazatetracyclo[14.3.1.1(3,7).1(9,13)]docosa-1(20),3(22),4,6,9(21),10,12,16,18-nonaene trifluoroacetate]",45,15,2040,55,50,–,–
"Clc1cnc2nc1Nc1cccc(c1)CCCc1cccc(c1)N2 [Example A4, 6-Chloro-2,4,8,23-tetraazatetracyclo[15.3.1.1(3,7).1(9,13)]tricosa-1(21),3(23),4,6,9(22),10,12,17,19-nonaene]",45,54,925,> 100,87,–,–
"O=C1CCc2cccc(c2)Nc2nc(ncc2Cl)Nc2cccc1c2 [Example A5, 6-Chloro-2,4,8,23-tetraazatetracyclo[15.3.1.1(3,7).1(9,13)]tricosa-1(21),3(23),4,6,9(22),10,12,17,19-nonaen-16-one trifluoroacetate]",> 100,56,6180,> 100,> 100,–,–
"Cc1cc(N2CCOCC2)c2cc1Nc1ncc(Cl)c(n1)Nc1cccc(c1)CC2 [Example A6, 6-Chloro-19-methyl-17-morpholin-4-yl-2,4,8,22-tetraazatetracyclo[14.3.1.1(3,7).1(9,13)]docosa-1(20),3(22),4,6,9(21),10,12,16,18-nonaene trifluoroacetate]",802,8.7,497,76,700,–,–
"Cc1ccc2cc1Nc1ncc(Cl)c(n1)Nc1cccc(c1)CC2 [Example A7, 6-Chloro-19-methyl-2,4,8,22-tetraazatetracyclo[14.3.1.1(3,7).1(9,13)]docosa-1(20),3(22),4,6,9(21),10,12,16,18-nonaene trifluoroacetate]",300,32,523,150,128,–,–
"CC(C)S(=O)(=O)c1ccc2cc1Nc1nc(ncc1Cl)Nc1cccc(c1)CC2 [Example A8, 6-Chloro-10-(isopropylsulfonyl)-2,4,8,22-tetraazatetracyclo[14.3.1.1(3,7).1(9,13)]docosa-1(20),3(22),4,6,9(21),10,12,16,18-nonaene trifluoroacetate]",20,52,80,80,51,–,–
"Cc1ccccc1S(=O)(=O)Nc1ccc2cc1CCc1cccc(c1)Nc1ncc(Cl)c(n1)N2 [Example B149, N-[6-Chloro-2,4,8,22-tetraazatetracyclo[14.3.1.1(3,7).1(9,13)]docosa-1(20), 3(22),4,6,9(21),10,12,16,18-nonaen-12-yl]-2-methylbenzenesulfonamide trifluoroacetate]",–,–,–,–,–,–,"IC50 ([1]; Table B1): 2.4 nM; IC50 ([3]; Table B1, cells without percent sign): 350 nM; IC50 (TYK2; Table B1): 0.51 nM; IC50 ([4]; Table B1): 0.15 nM"
"O=C(Nc1ccc2cc1CCc1cncc(c1)Nc1ncc(Cl)c(n1)N2)N1CCN(c2ncc(C(F)(F)F)cc2Cl)CC1 [Example B302, N-[6-Chloro-2,4,8,18,22-pentaazatetracyclo[14.3.1.1(3,7).1(9,13)]docosa-1(20),3(22),4,6,9(21),10,12,16,18-nonaen-12-yl]-4-[3-chloro-5-(trifluoromethyl)pyridin-2-yl]piperazine-1-carboxamide tris(trifluoroacetate)]",–,–,–,–,–,–,IC50 ([1]; Table B1): > 400 nM; IC50 ([2]; Table B1): > 400 nM; ALK % of inhibition at a concentration of 500 nM or 1 mM ([3]; percentage inhibition of the example compound at a concentration of 500 nM or 1 mM (not specified which)): 69%; IC50 ([4]; Table B1): 119 nM
"Clc1cnc2nc1Nc1cccc(c1)NCc1cccc(c1)N2 [Example D16, 6-Chloro-2,4,8,14,22-pentaazatetracyclo[14.3.1.1(3,7).1(9,13)]docosa-1(20),3(22),4,6,9(21),10,12,16,18-nonaene bis(trifluoroacetate)]",–,–,–,–,–,–,"IC50 ([1]; Table D1): 325 nM; IC50 ([2]; Table D1): 113 nM; IC50 ([3]; Table D1, 90 μM ATP): > 10000 nM; IC50 ([4]; Table D1): 144 nM"
"[O-][S+]1CCc2cccc(c2)Nc2ncc(Cl)c(n2)Nc2cccc1c2 (centres unmarked) [Example D23, 6-Chloro-14-thia-2,4,8,23-tetraazatetracyclo[15.3.1.1(3,7).1(9,13)]tricosa-1(21),3(23),4,6,9(22),10,12,17,19-nonaene 14-oxide trifluoroacetate]",–,–,–,–,–,–,"IC50 ([1]; Table D1): 21 nM; IC50 ([2]; Table D1): 4.9 nM; IC50 ([3]; Table D1, 90 μM ATP): 1210 nM; IC50 (TYK2; Table D1): 23 nM"

# Continued, in another order:
"IC50 [1, 5] [nM]","IC50 [2, 6] [nM]",IC50 ([3]; 90 μM ATP) [nM],IC50 (TYK2) [nM],"IC50 [4, 7] [nM]","ALK % of inhibition at a concentration of 500 nM or 1 mM [3, 8] [%]",Compound,also measured
67,19,–,22,9.1,0,"N#Cc1ccc(NC(=O)N2CCN(C(=O)COc3ccc4cc3CCc3cccc(c3)Nc3ncc(Cl)c(n3)N4)CC2)cc1 [Example A9, 4-({[6-Chloro-2,4,8,22-tetraazatetracyclo[14.3.1.1(3,7).1(9,13)]docosa-1(20),3(22),4,6,9(21),10,12,16,18-nonaen-12-yl]oxy}acetyl)-N-(4-cyanophenyl)piperazine-1-carboxamide trifluoroacetate]",–
104,21,–,50,14,5,"O=C(COc1ccc2cc1CCc1cccc(c1)Nc1ncc(Cl)c(n1)N2)N1CCN(C(=O)Nc2ccc(Cl)nc2)CC1 [Example A10, 4-(6-Chloropyridin-3-yl)-4-({[6-chloro-2,4,8,22-tetraazatetracyclo[14.3.1.1(3,7).1(9,13)]docosa-1(20),3(22),4,6,9(21),10,12,16,18-nonaen-12-yl]oxy}acetyl)piperazine-1-carboxamide bis(trifluoroacetate)]",–
217,87,–,–,85,7,"CC(C)(C)OC(=O)N1CCN(C(=O)COc2ccc3cc2CCc2cccc(c2)Nc2ncc(Cl)c(n2)N3)CC1 [Example A17, tert-Butyl 4-({[6-chloro-2,4,8,22-tetraazatetracyclo[14.3.1.1(3,7).1(9,13)]docosa-1(20),3(22),4,6,9(21),10,12,16,18-nonaen-12-yl]oxy}acetyl)piperazine-1-carboxylate trifluoroacetate]",–
> 100,54,–,–,17,–,"Cc1noc(C)c1NC(=O)N1CCC(CC(=O)Nc2ccc3cc2CCc2cncc(c2)Nc2ncc(Cl)c(n2)N3)CC1 [Example A19, bis(trifluoroacetate)]","ALK % of inhibition at a concentration of 500 nM or 1 mM ([3]; compound at 500 nM or 1 mM, 90 μM ATP, bis(trifluoroacetate)): 17%"
> 200,> 200,–,> 200,–,27,"N#Cc1ccc(C(=O)N2CCC(CC(=O)Nc3ccc4cc3CCc3cncc(c3)Nc3ncc(Cl)c(n3)N4)CC2)cc1 [Example A190, N-[6-Chloro-2,4,8,18,22-pentaazatetracyclo[14.3.1.1(3,7).1(9,13)]docosa-1(20),3(22),4,6,9(21),10,12,16,18-nonaen-12-yl]-2-[1-(4-cyanobenzoyl)piperidin-4-yl]acetamide bis(trifluoroacetate)]",–
> 200,> 200,–,> 200,–,15,"COc1cccc(S(=O)(=O)N2CCC(CC(=O)Nc3ccc4cc3CCc3cccc(c3)Nc3ncc(Cl)c(n3)N4)CC2)c1 [Example A206, N-[6-Chloro-2,4,8,22-tetraazatetracyclo[14.3.1.1(3,7).1(9,13)]docosa-1(20),3(22),4,6,9(21),10,12,16,18-nonaen-12-yl]-2-{1-[(3-methoxyphenyl)sulfonyl]piperidin-4-yl}acetamide trifluoroacetate]",–
> 400,244,–,–,18,15,"Cc1ccc(C#N)c(N2CCC(CC(=O)Nc3ccc4cc3CCc3cncc(c3)Nc3ncc(Cl)c(n3)N4)CC2)n1 [Example A238, N-[6-Chloro-2,4,8,18,22-pentaazatetracyclo[14.3.1.1(3,7).1(9,13)]docosa-1(20),3(22),4,6,9(21),10,12,16,18-nonaen-12-yl]-2-[1-(3-cyano-6-methylpyridin-2-yl)piperidin-4-yl]acetamide tris(trifluoroacetate)]",–
